Columns and labels:
Assay type in all cases: cell-based
[1] = test system: 786-0; test: Cell proliferation assay (WST-1 and/or Alamar Blue), 786-0; details: Homo sapiens; 786-0, renal cell adenocarcinoma; 72 hours incubation
Description: (§1) Compounds of the present invention were assayed for activity using a WST-1 cell proliferation assay and/or an Alamar Blue-based assay.
(§2) The WST-1 cell proliferation assay employed was obtained from Chemicon International, Inc. of Temecula, Calif. Further information on assay materials and procedure is provided at www.chemicon.com. The WST-1 cell proliferation assay relies on the formation of a formazan from a tetrazolium salt by cellular enzymes, whereby the amount of the obtained formazan dye as an indicator of viability is directly proportional to the number of metabolically active cells in culture.
(§3) Following 72 hours incubation of the respective cells in 50 μL/well with test compound, 10 μL of WST-1 reagent was added to each well and its contents briefly mixed. The cells were then incubated for 2 hours before absorbance of the dye was measured at 450 nm using a commercial UV/VIS microplate reader (Molecular Devices).
(§4) The Alamar Blue assay employed the CellTiter-Blue™ Cell Viability Assay from Promega Corporation of Madison, Wis. Further information on assay materials and procedure is provided at www.promega.com. The Alamar Blue-based CellTiter-Blue assay indicates cell viability by measuring the ability of cells in culture to reduce resazurin to resorufin, whereby the intensity of the fluorescence signal is directly proportional to the number of live cells. […]

[2] = test system: KASUMI-1; test: Cell proliferation assay (WST-1 and/or Alamar Blue), KASUMI-1; details: KASUMI-1, human acute myeloid leukemia; 72 hours incubation
Description: as §1, §2, §3, §4

[3] = test system: HCT-116; test: Cell proliferation assay (WST-1 and/or Alamar Blue), HCT-116; details: Homo sapiens; HCT-116, colorectal carcinoma; 72 hours incubation
Description: as §1, §2, §3, §4

[4] = test system: CCRF-CEM; test: Cell proliferation assay (WST-1 and/or Alamar Blue), CCRF-CEM; details: human T-cell derived lymphoblastic leukemia, 72 hours incubation
Description: as §1, §2, §3, §4

[5] = test system: MOLT-4; test: Cell proliferation assay (WST-1 and/or Alamar Blue), MOLT-4; details: MOLT-4, human T-cell derived lymphoblastic leukemia; 72 hours incubation
Description: as §1, §2, §3, §4

[6] = test system: SUP-B15; test: Cell proliferation assay (WST-1 and/or Alamar Blue), SUP-B15; details: SUP-B15, human B-cell derived acute lymphoblastic leukemia; 72 hours incubation
Description: as §1, §2, §3, §4

[7] = test system: SKOV-3; test: Cell proliferation assay (WST-1 and/or Alamar Blue), SKOV-3; details: Homo sapiens, SK-OV-3; SKOV-3, ovarian adenocarcinoma; 72 hours incubation
Description: as §1, §2, §3, §4

[8] = test system: MiaPACA-2; test: Cell proliferation assay (WST-1 and/or Alamar Blue), MiaPACA-2; details: Homo sapiens, MIA PaCa-2; MiaPACA-2, pancreas carcinoma; 72 hours incubation
Description: as §1, §2, §3, §4

[9] = test system: MOLM-13; test: Cell proliferation assay (WST-1 and/or Alamar Blue), MOLM-13; details: MOLM-13, human acute myeloid leukemia; 72 hours incubation
Description: as §1, §2, §3, §4

[10] = test system: MV4-11; test: Cell proliferation assay (WST-1 and/or Alamar Blue), MV4-11; details: MV4-11, human acute myelo-monocytic leukemia; 72 hours incubation
Description: as §1, §2, §3, §4

[11] = test system: MDA-MB453; test: Cell proliferation assay (WST-1 and/or Alamar Blue), MDA-MB453; details: Homo sapiens, MDA-MB-453; MDA-MB453, metastatic breast carcinoma; 72 hours incubation
Description: as §1, §2, §3, §4

[12] = test system: DU145; test: Cell proliferation assay (WST-1 and/or Alamar Blue), DU145; details: Homo sapiens, DU-145; DU145, prostate carcinoma; 72 hours incubation
Description: as §1, §2, §3, §4

[13] = test system: SKM-1; test: Cell proliferation assay (WST-1 and/or Alamar Blue), SKM-1; details: SKM-1, human acute myeloid leukemia; 72 hours incubation
Description: as §1, §2, §3, §4

[14] = test system: PC3; test: Cell proliferation assay (WST-1 and/or Alamar Blue), PC3; details: Homo sapiens, PC-3; PC3, prostate adenocarcinoma; 72 hours incubation
Description: as §1, §2, §3, §4

[15] = test system: RS4-11; test: Cell proliferation assay (WST-1 and/or Alamar Blue), RS4-11; details: RS4-11, human B-cell derived acute lymphoblastic leukemia; 72 hours incubation
Description: as §1, §2, §3, §4

[16] = test system: OVCAR-5; test: Cell proliferation assay (WST-1 and/or Alamar Blue), OVCAR-5; details: Homo sapiens; OVCAR-5, ovarian carcinoma; 72 hours incubation
Description: as §1, §2, §3, §4

[17] = test system: NCI-H460; test: Cell proliferation assay (WST-1 and/or Alamar Blue), NCI-H460; details: Homo sapiens; NCI-H460, large cell lung carcinoma; 72 hours incubation
Description: as §1, §2, §3, §4

[18] = test system: PEER; test: Cell proliferation assay (WST-1 and/or Alamar Blue), PEER; details: human T-cell derived lymphoblastic leukemia, 72 hours incubation
Description: as §1, §2, §3, §4

[19] = test system: ACHN; test: Cell proliferation assay (WST-1 and/or Alamar Blue), ACHN; details: Homo sapiens, renal cell adenocarcinoma, 72 hours incubation
Description: as §1, §2, §3, §4

[20] = test system: C1; test: Cell proliferation assay (WST-1 and/or Alamar Blue), C1; details: C1, human B-cell derived acute lymphoblastic leukemia; 72 hours incubation
Description: as §1, §2, §3, §4

[21] = test system: MCF-7; test: Cell proliferation assay (WST-1 and/or Alamar Blue), MCF-7; details: Homo sapiens, MCF7; MCF-7, epithelial mammary adenocarcinoma; 72 hours incubation
Description: as §1, §2, §3, §4

[22] = test system: DAOY; test: Cell proliferation assay (WST-1 and/or Alamar Blue), DAOY; details: Homo sapiens, cerebellar medulloblastoma, 72 hours incubation
Description: as §1, §2, §3, §4

[23] = test system: SK-MEL-5; test: Cell proliferation assay (WST-1 and/or Alamar Blue), SK-MEL-5; details: Homo sapiens; SK-MEL-5, malignant melanoma; 72 hours incubation
Description: as §1, §2, §3, §4

[24] = test system: PANC-1; test: Cell proliferation assay (WST-1 and/or Alamar Blue), PANC-1; details: Homo sapiens; PANC-1, pancreas duct epithelial carcinoma; 72 hours incubation
Description: as §1, §2, §3, §4

[25] = test system: OCI-AML2; test: Cell proliferation assay (WST-1 and/or Alamar Blue), OCI-AML2; details: OCI-AML2, human acute myeloid leukemia; 72 hours incubation
Description: as §1, §2, §3, §4

[26] = test system: A549; test: Cell proliferation assay (WST-1 and/or Alamar Blue), A549; details: Homo sapiens; A549, lung carcinoma; 72 hours incubation
Description: as §1, §2, §3, §4

CC(C)C(=O)Nc1cccc(C(=O)Nc2nnc(CCc3ccccc3)s2)c1 [Compound A]
IC50 [1]: 4.34 µM | IC50 [2]: ≥ 20 µM | IC50 [3]: 17.3 µM | IC50 [4]: 0.97 µM | IC50 [5]: 0.34 µM | IC50 [6]: 4.82 µM | IC50 [7]: 3.5 µM | IC50 [8]: 3.36 µM | IC50 [9]: 0.83 µM | IC50 [10]: 0.93 µM | IC50 [11]: 1.71 µM | IC50 [12]: 6.14 µM | IC50 [13]: 0.6 µM | IC50 [14]: 2.35 µM | IC50 [15]: 0.13 µM | IC50 [16]: 6.65 µM | IC50 [17]: 2.32 µM | IC50 [18]: > 20 µM | IC50 [19]: 5 µM | IC50 [20]: 0.57 µM | IC50 [21]: > 20 µM | IC50 [22]: 2.7 µM | IC50 [23]: 2.39 µM | IC50 [24]: > 20 µM | IC50 [25]: 0.35 µM | IC50 [26]: 19.1 µM
